Source: US12012410B2, “Substituted pyrazolo[1,5-a]pyrazines for spinal muscular atrophy” (REBORNA BIOSCIENCES, INC., priority 2018, dated 2024)

System: FL-SMN mRNA (SMN transcript containing exons 7 and 8)
Experiment: Live-cell assay to measure changes in FL-SMN mRNA levels (qPCR) after exposure to the compounds
Type: cell-based, human
Conditions: fibroblasts derived from patients SMA (GM03813); 24 hours incubation
Method: In this example, each test compound was administered to cultured cells, and changes in the expression levels of mRNA transcripts of SMN, i.e., FL-SMN containing exons 7 and 8 and Delta7 with exon 7 skipped, were examined using PCR.
Fibroblasts derived from patients SMA (GM03813) (Coriell Cell Repositories) were cultured with passages using DMEM (High Glucose) (Life Technologies) supplemented with 10% FBS (Life Technologies). Cells were seeded in tissue-culture-treated 96-well plates (Corning) at 1.5 or 0.5×10^4 cells/well in 100 μL of medium. The cells were incubated in 5% CO2 for 6 hours, and the medium was replaced with 100 μL of medium (with DMSO, 0.1% final concentration) containing each of the compounds given in the Examples. After additional incubation for 24 hours under the same conditions, the cells were washed once with D-PBS(—) (Wako) and 25 μL/well of the lysis solution (with gDNA Remove) contained in the SuperPrep (registered trademark) Cell Lysis & RT Kit for qPCR (Toyobo life science) was added according to the manufacturer's instructions so that the cells were lysed and the genomic DNA was degraded. Furthermore, 5 μL of the STOP solution (with RNase Inhibitor) contained in the kit was added to provide RNA-containing solutions. Six microliters of the RNA-containing solutions were each mixed with 14 μL of a reverse transcription solution containing transcriptase together with dNTP, random primers and an oligodT primer. Reverse transcription was performed at 37° C. (15 min), 50° C. (5 min), and 98° C. (5 min), to give total cDNAs. The total cDNAs were diluted 30-fold with Ultra-pure water (Invitrogen) to measure the expression levels of FL-SMN, delta7, and GAPDH. For quantitative PCR (qPCR), a PCR solution was prepared according to the instructions of the manufacturer of the THUNDERBIRD (registered trademark) Probe qPCR Mix (Toyobo life science). Five microliters of the diluted total cDNA solutions and oligo DNA standard solutions, each containing either 001-Standard FL-SMN (SEQ ID NO. 1) or 002-Standard delta7 (SEQ ID NO. 2), were each mixed with 10 μL of each of the PCR solutions containing a qPCR probe, primers, and PCR enzyme. […] The oligoDNA standard solutions were prepared as those containing either of 5×10^8, 5×10^7, 5×10^6, 5×10^5, 5×10^4, 5×10^3, 5×10^2, 5×10, 5, or 0 copies. For the oligo DNA standards, primers, and probes, oligonucleotides synthesized by Integrated DNA Technologies, Inc. (IDT) were used. […] FIGS. 3B and 3D show their detection mechanisms. The final concentrations of the primers and probes added were 0.4 μM and 0.15 μM, respectively. The qPCR was performed using the following conditions on a ViiA7 instrument (Applied Biosystems): first stage: 95° C. (1 min)→second stage: 95° C. (15 sec)→third stage: 60° C. (1 min)→40 repeated cycles of the second and third stages. The GAPDH mRNA was used as the internal control, and the commercially available 20×gene expression PCR assay (Life Technologies, 4326317E, Hs99999905_ml) and Standard GAPDH (SEQ ID NO. 7) (see FIG. 1) was used to determine the number of copies of this gene. The measurement values obtained for the samples to be measured were standardized against the respective value obtained for GAPDH.
Using the above-mentioned assays, the activities of the compounds of the Examples were evaluated. Specifically, the percentages of the FL-SMN and delta7 values obtained using DMSO without the compounds and standardized against GAPDH were set as 100% and those of the FL-SMN and delta7 values obtained at the time of administration of the compounds and standardized against GAPDH were calculated. […]

Structure (SMILES)	Percentage of increase (FL-SMN mRNA standardized against GAPDH, DMSO control set as 100%)
Cc1cn2nc(-c3nc4ccc(N5CCN(C)C[C@@H]5C)cc4c(=O)[nH]3)cc2c(C)n1 [Example 127, (S8)-6-(2,4-simethylpiperazin-1-yl)-2-(4,6-dimethylpyrazolo[1,5-a]pyrazin-2-yl)quinazolin-4(3H)-one]	*** (equal to or higher than 150% but lower than 180%)
Cc1cn2cc(-c3ccc4nc(C5(F)CCN(C)CC5)[nH]c(=O)c4c3)cc(F)c2n1 [Example 86, 2-(4-fluoro-1-methylpiperidin-4-yl)-6-(8-fluoro-2-methylimidazo[1,2-a]pyridin-6-yl)quinazolin-4(3H)-one]	*** (equal to or higher than 150% but lower than 180%)
Cc1cn2ccc(-c3ccc4ncn(C5CCN(C)CC5)c(=O)c4c3)cc2n1 [Example 80, 6-(2-methylimidazo[1,2-a]pyridin-7-yl)-3-(1-methylpiperidin-4-yl)quinazolin-4(3H)-one]	* (equal to or higher than 100% but lower than 120%)
Cc1cn2cc(-c3cc(F)c4nc(C5(F)CCN(C(C)C)CC5)[nH]c(=O)c4c3)ccc2n1 [Example 96, 8-fluoro-2-(4-fluoro-1-isopropylpiperidin-4-yl)-6-(2-methylimidazo[1,2-a]pyridin-6-yl)quinazolin-4(3H)-one]	*** (equal to or higher than 150% but lower than 180%)
Cc1nc2c(F)cc(-c3cc(F)c4nc(C5CCN(C6CC6)CC5)[nH]c(=O)c4c3)cc2o1 [Example 28, 2-(1-cyclopropylpiperidin-4-yl)-8-fluoro-6-(4-fluoro-2-methyl-1,3-benzoxazol-6-yl)quinazolin-4(3H)-one]	**** (equal to or higher than 180%)
Cc1cn2nc(-c3nc4ccc(N5CCOCC5)cc4c(=O)[nH]3)cc2c(C)n1 [Example 79, 2-(4,6-dimethylpyrazolo[1,5-a]pyrazin-2-yl)-6-(morpholin-4-yl)quinazolin-4(3H)-one]	* (equal to or higher than 100% but lower than 120%)
Cc1nc2c(F)cc(-c3ccc4nc(C5CCN(C)CC5)[nH]c(=O)c4c3)cc2o1 [Example 18, 6-(4-Fluoro-2-methyl-1,3-benzoxazol-6-yl)-2-(1-methylpiperidin-4-yl)quinazolin-4(3H)-one]	**** (equal to or higher than 180%)
COc1ccc(-c2cc(F)c3nc(C4CCN(C)CC4)[nH]c(=O)c3c2)cc1F [Example 87, 8-fluoro-6-(3-fluoro-4-methoxyphenyl)-2-(1-methylpiperidin-4-yl)quinazolin-4(3H7)-one]	**** (equal to or higher than 180%)
Cc1cn2cc(-c3ccc4nc(C5(F)CCN(C6CC6)CC5)[nH]c(=O)c4c3)cc(F)c2n1 [Example 85, 2-(4-fluoro-1-cyclopropylpiperidin-4-yl)-6-(8-fluoro-2-methylimidazo[1,2-a]pyridin-6-yl)quinazolin-4(3H)-one]	**** (equal to or higher than 180%)
Cc1nc2c(F)cc(-c3ccc4nc(C5CCN(C6CC6)CC5)[nH]c(=O)c4c3)cc2o1 [Example 27, 2-(1-cyclopropylpiperidin-4-yl)-6-(4-fluoro-2-methyl-1,3-benzoxazol-6-yl)quinazolin-4(3H)-one]	**** (equal to or higher than 180%)
Cc1cn2cc(-c3cc4c(=O)[nH]c(C5(F)CCN(C)CC5)nc4cn3)cc(F)c2n1 [Example 108, 2-(4-fluoro-1-methylpiperidin-4-yl)-6-(8-fluoro-2-methylimidazo[1,2-a]pyridin-6-yl)pyrido[3,4-d]pyrimidin-4(3H)-one]	** (equal to or higher than 120% but lower than 150%)
